Results from patent US5126057A, “Disinfecting with N,N'-dihaloimidazolidin-4-ones” (Auburn Research Foundation, priority 1991, dated 1992).

What was measured:
[1] = Stability in synthetic halogen demand water (SDW); format: physicochemical; settings: 4° C.
Description: A synthetic halogen demand water (SDW) was prepared by mixing the following substances with demand-free water (DFW): 375 milligrams per liter of each of the inorganic salts sodium chloride, potassium chloride, calcium chloride, and magnesium chloride; 50 milligrams per liter of Bentonite clay; 30 milligrams per liter of humic acid; 0.01 percent final concentration of heat-treated horse serum; and 5×10^5 cells per milliliter of heat-killed Saccharomyces cerevisiae yeast cells. The SDW solution was buffered with 0.01 Molar borate/sodium hydroxide to a pH of 9.5 and held at 4° C. during the experiments. The conditions of high ionic strength, turbidity, and organic material, and alkaline pH at low temperature, are viewed as a worst-case scenario for disinfection applications and thus should provide the optimum test of stability for the new compounds.
In separate flasks were dissolved compounds 1, 2, 3, and 5 to a starting concentration of 10 milligrams per liter total potential positive chlorine or its molar equivalent (16.25 milligrams per liter) in total potential positive halogen for Compound 5. Aliquots were withdrawn frequently over a period of more than 90 hours, and the percent positive halogen remaining was determined by standard iodometric titration.

[2] = system: Staphylococcus aureus (ATCC25923); assay: Bactericidal efficacy, percent inactivation of S. aureus; format: cell-based; settings: for killing at 5 ppm: DFW; for killing at 10 ppm: SDW
Description: (§1) The halogenated imidazolidin-4-one derivatives prepared as in examples 3, 5, and 6 (Compounds 1, 5, and 3, respectively) were tested as bactericides against the microorganisms Staphylococcus aureus (ATCC25923) and Pseudomonas aeruginosa (ATCC 27853) in demand-free water (DFW) as a function of pH and temperature and in a synthetic-demand water (SDW) at pH 9.5 and 4° C. The demand-free and synthetic-demand waters were prepared as described in examples 7 and 12, respectively.
(§2) For the bactericidal efficacy tests 50 milliliters of buffered DFW or SDW were placed in a 125 milliliter flask which was then inoculated with the organism to be tested such that the final density of the organism was about 1×10^6 cfu/ml (colony forming units per milliliter). The inoculated solution was allowed to equilibrate at the test temperature by immersion in a thermostated water bath for 15 minutes with constant stirring. Then an appropriate amount of an aqueous solution containing the test halogenated imidazolidin-4-one compound maintained at the same test temperature was added to the inoculated solution to bring the total concentration of potential positive halogen (Cl^+ or Cl^+ /Br^+) in the mixture to a predetermined level (10 parts per million and 5 parts per million Cl^+ from compounds 1 and 3; the molar equivalent in Cl^+ /Br^+ from Compound 5). 1 milliliter aliquots were removed from the test mixture at various predetermined times, and the active halogen was quenched by 1 milliliter portions of sterile 0.02 Normal sodium thiosulfate. Serial dilutions were made into sterile saline, and three 25 microliter aliquots of each of the resulting dilutions were applied to the dried surface of a Petri dish containing tryptic soy and nutrient agars for plating S. aureus and P. aeruginosa, respectively. After 48 hours at 37° C. the three replicates for each dilution were counted and averaged. This average was used to compute the cfu/ml for that particular aliquot. Inactivation of the organism was considered to be at least 99.9999 percent when no colonies were detected in the thiosulfate quenched aliquots.

bacteria = assay: Bactericidal efficacy, summary over all bacteria and conditions; format: cell-based, Staphylococcus aureus and Pseudomonas aeruginosa; settings: all conditions, less than or equal 5 minutes of contact time, even in SDW
Description: as §1, §2

[3] = Laboratory stability in halogen demand-free water (DFW), iodometric titration; format: physicochemical; settings: for remaining at 23.52 h / remaining at 119.28 h / remaining at 168 h / remaining at 336 h / remaining at 504 h / remaining at 672 h / remaining at 840 h / remaining at 1008 h: demand-free water
Description: The stability of 1,3-dichloro-2,2,5,5-tetramethylimidazolidin-4-one (Compound 1) in halogen demand-free water was determined at 22° C. and pH values of 4.5, 7.0, and 9.5, and the results were compared to those for free chlorine as supplied by calcium hypochlorite. The demand-free water (DFW) was prepared by chlorination of distilled, deionized water buffered to the appropriate pH followed by dechlorination (of the excess free chlorine) by exposure to direct sunlight until no free chlorine remained. This treatment insured that all halogen demand in the water was neutralized. Then Compound 1 and calcium hypochlorite were separately dissolved in identical DFW (buffered to an appropriate pH) solutions to the same final total chlorine concentrations (10 milligrams per liter potential positive chlorine). The solutions in separate flasks, which were stoppered with porous, sterile cotton plugs to allow free exchange with laboratory air, were then held at a constant temperature of 22° C. by means of a controlled water bath for a period of several weeks. Aliquots were withdrawn periodically (at least weekly), and the total positive chlorine remaining was determined in triplicate by standard iodometric titration. […]
The stabilities of 1,3-dibromo-2,2,5,5-tetramethylimidazolidin-4-one (Compound 4) and 1-bromo-3-chloro-2,2,5,5-tetramethylimidazolidin-4-one (Compound 5) in halogen demand-free water (DFW) were determined at 22° C. and pH values of 7.0 and 9.5 using the same procedures as discussed under example 9. Given the instability of Compound 1 at pH 4.5 (example 9), it was deemed unnecessary to test compounds 4 and 5 at that pH. The two compounds were dissolved in DFW buffered to the appropriate pH in separate flasks and held at a temperature of 22° C. by means of a constant temperature bath. The starting concentrations of total potential positive halogen in the two solutions were 22.6 milligrams per liter for Compound 4 and 16.25 milligrams per liter for Compound 5; these concentrations represent the molar equivalents in total potential positive halogen to that used for Compound 1 in example 9. The solutions were analyzed in the manner described in example 9.

[4] = ATCC25923, 5 min, pH 9.5, pH 9.5, 4° C., 5 minutes
[5] = ATCC25923, 10 min, pH 9.5, pH 9.5, 4° C., 10 minutes

Compound: CC1(C)C(=O)N(Cl)C(C)(C)N1Br [Compound 5, 1-bromo-3-chloro-2,2,5,5-tetramethylimidazolidin-4-one]
- stability (in words) ([1]; heavy halogen demand (SDW), pH 9.5): comparable in stability to free chlorine under these conditions
- remaining at 0.008 h ([1]; synthetic halogen demand water, SDW, pH 9.5, 0.008 hrs, read-out: Percent Halogen Remaining): 64%
- remaining at 0.167 h ([1]; synthetic halogen demand water, SDW, pH 9.5, 0.167 hrs, read-out: Percent Halogen Remaining): 49.9%
- remaining at 0.5 h ([1]; synthetic halogen demand water, SDW, pH 9.5, 0.5 hrs, read-out: Percent Halogen Remaining): 47.1%
- remaining at 1 h ([1]; synthetic halogen demand water, SDW, pH 9.5, 1.0 hrs, read-out: Percent Halogen Remaining): 47.4%
- remaining at 4 h ([1]; synthetic halogen demand water, SDW, pH 9.5, 4.0 hrs, read-out: Percent Halogen Remaining): 41.9%
- remaining at 24 h ([1]; synthetic halogen demand water, SDW, pH 9.5, 24.0 hrs, read-out: Percent Halogen Remaining): 38.2%
- remaining at 94 h ([1]; synthetic halogen demand water, SDW, pH 9.5, 94.0 hrs, read-out: Percent Halogen Remaining): 31.8%
- killing at 5 ppm ([2]; ATCC25923, 5 min, pH 4.5, pH 4.5, 22° C., 5 minutes): > 100%
- killing at 5 ppm ([2]; ATCC25923, 5 min, pH 7, pH 7.0, 22° C., 5 minutes): > 100%
- killing at 5 ppm [2, 4]: > 100%
- killing at 10 ppm [2, 4]: > 100%
- killing at 5 ppm ([2]; ATCC25923, 5 min, pH 9.5, pH 9.5, 22° C., 5 minutes): > 100%
- killing at 5 ppm ([2]; ATCC25923, 10 min, pH 4.5, pH 4.5, 22° C., 10 minutes): > 100%
- killing at 5 ppm ([2]; ATCC25923, 10 min, pH 7, pH 7.0, 22° C., 10 minutes): > 100%
- killing at 5 ppm [2, 5]: > 100%
- killing at 10 ppm [2, 5]: > 100%
- killing at 5 ppm ([2]; ATCC25923, 10 min, pH 9.5, pH 9.5, 22° C., 10 minutes): > 100%
- reduction of bacteria (bacteria): greater than 99.9999%
- remaining at 23.52 h ([3]; pH 7): 97.3%
- remaining at 119.28 h ([3]; pH 7): 95.4%
- remaining at 168 h ([3]; pH 7): 91.7%
- remaining at 336 h ([3]; pH 7): 88.2%
- remaining at 504 h ([3]; pH 7): 75%
- remaining at 672 h ([3]; pH 7): 45.9%
- remaining at 840 h ([3]; pH 7): 17.5%
- remaining at 1008 h ([3]; pH 7): 7.6%
- remaining at 23.52 h ([3]; pH 9.5): 96.3%
- remaining at 119.28 h ([3]; pH 9.5): 89.5%
- remaining at 168 h ([3]; pH 9.5): 88.3%
- remaining at 336 h ([3]; pH 9.5): 86.3%
- remaining at 504 h ([3]; pH 9.5): 70.8%
- remaining at 672 h ([3]; pH 9.5): 60.8%
- remaining at 840 h ([3]; pH 9.5): 46.8%
- remaining at 1008 h ([3]; pH 9.5): 38.4%
- stability (in words), against free chlorine ([3]; pH 9.5): comparable in stability to free chlorine (see data in example 9) at pH 9.5 only
